Laboratory results as given in ChEMBL document CHEMBL3865812, “Selective killing of cancer cells with triterpenoic acid amides - The substantial role of an aromatic moiety alignment” (Eur J Med Chem, 2016).
Calls of active or inactive are those of the source. No cut-off for these calls is given here.

Experiments:
[1] = Cytotoxicity against mouse NIH/3T3 cells measured after 96 hrs by SRB assay; assay type: toxicity, NIH3T3
[2] = Cell cycle arrest in human A2780 cells assessed as accumulation at S-phase at 6 uM measured after 24 hrs by propidium iodide staining based FACS analysis; assay type: functional
[3] = Cytotoxicity against human HT-29 cells measured after 96 hrs by SRB assay; assay type: functional, cell-based; settings: HT-29, 96 h
[4] = Cytotoxicity against human A549 cells measured after 96 hrs by SRB assay; assay type: functional, cell-based; settings: A549, 96 h
[5] = Cell cycle arrest in human A2780 cells assessed as loss of G2 peak at 6 uM measured after 24 hrs by propidium iodide staining based FACS analysis; assay type: functional
A2780 [6] = experiment: Induction of apoptosis in human A2780 cells assessed as secondary necrotic cells at 6 uM measured after 2 days by Annexin V/FITC/propidium iodide staining-based FACS analysis; assay type: functional, cell-based
A2780 [7] = experiment: Induction of apoptosis in human A2780 cells assessed as increase in apoptotic cells at 6 uM measured after 2 days by Annexin V/FITC/propidium iodide staining-based FACS analysis; assay type: functional, cell-based
[8] = Cytotoxicity against human A2780 cells measured after 96 hrs by SRB assay; assay type: functional, cell-based; settings: A2780, 96 h
[9] = Cell cycle arrest in human A2780 cells assessed as decrease in accumulation of cells at S-phase at 6 uM measured after 48 hrs by propidium iodide staining based FACS analysis; assay type: functional
[10] = Solubility of compound in water; assay type: physicochemical; settings: buffer
[11] = Cytotoxicity against human 518A2 cells measured after 96 hrs by SRB assay; assay type: functional, cell-based; settings: 518A2, 96 h
[12] = Cell cycle arrest in human A2780 cells assessed as sub-G1 peak appearance at 6 uM measured after 48 hrs by propidium iodide staining based FACS analysis; assay type: functional
[13] = Cytotoxicity against human 8505C cells measured after 96 hrs by SRB assay; assay type: functional, cell-based
[14] = Cell cycle arrest in human A2780 cells assessed as decrease in G1 peak at 6 uM measured after 24 hrs by propidium iodide staining based FACS analysis; assay type: functional
[15] = Cytotoxicity against human MCF7 cells measured after 96 hrs by SRB assay; assay type: functional, cell-based; settings: MCF7, 96 h

SMILES | EC50 at 96 h [1] [µM] | Activity [2] | EC50 [3] [µM] | EC50 [4] [µM] | Activity [5] | Activity (A2780 [6]) | Activity (A2780 [7]) | EC50 [8] [µM] | Activity [9] | solubility [10] | EC50 [11] [µM] | Activity [12] | EC50 [13] [µM] | Activity [14] | EC50 [15] [µM]
CC(=O)O[C@H]1C[C@]2(C)[C@H]3CC=C4[C@@H]5CC(C)(C)CC[C@]5(C(=O)Nc5cnc6ccccc6c5)CC[C@@]4(C)[C@]3(C)CC[C@H]2C(C)(C)[C@H]1OC(C)=O | 0.9 | Active | 6.3 | 7.4 | Active | Active | Active | 2.2 | Active | Insoluble | 2.9 | Active | 5 | Active | 9.3
CC(=O)O[C@H]1C[C@]2(C)[C@H]3CC=C4[C@@H]5[C@@H](C)[C@H](C)CC[C@]5(C(=O)Nc5ccncc5)CC[C@@]4(C)[C@]3(C)CC[C@H]2C(C)(C)[C@H]1OC(C)=O | 5.7 |  | 9.4 | 10.1 |  |  |  | 8.3 |  |  | 8.3 |  | 8.5 |  | 9
CC(=O)O[C@H]1C[C@]2(C)[C@H]3CC=C4[C@@H]5CC(C)(C)CC[C@]5(C(=O)Nc5ccnc6ccccc56)CC[C@@]4(C)[C@]3(C)CC[C@H]2C(C)(C)[C@H]1OC(C)=O | 2.9 | Active | 4.1 | 4.2 | Active | Active | Active | 2 | Active | Insoluble | 2.4 | Active | 3.4 | Active | 4.3
CC(=O)O[C@H]1C[C@]2(C)[C@H]3CC=C4[C@@H]5CC(C)(C)CC[C@]5(C(=O)Nc5cccc6cccnc56)CC[C@@]4(C)[C@]3(C)CC[C@H]2C(C)(C)[C@H]1OC(C)=O | > 30 |  | > 30 | > 30 |  |  |  | 5.1 |  | Insoluble | 6.2 |  | 16.1 |  | 24.6
CC(=O)O[C@H]1C[C@]2(C)[C@H]3CC=C4[C@@H]5[C@@H](C)[C@H](C)CC[C@]5(C(=O)O)CC[C@@]4(C)[C@]3(C)CC[C@H]2C(C)(C)[C@H]1OC(C)=O | 12.7 |  | 16.2 | 15.6 |  |  |  | 17.9 |  |  | 17.9 |  | 15.6 |  | 10.4
CC(=O)O[C@H]1C[C@]2(C)[C@H]3CC=C4[C@@H]5[C@@H](C)[C@H](C)CC[C@]5(C(=O)Nc5ccc6ncccc6c5)CC[C@@]4(C)[C@]3(C)CC[C@H]2C(C)(C)[C@H]1OC(C)=O | 0.9 |  | 9.2 | 5.3 |  |  |  | 4.2 |  | Insoluble | 4.2 |  | 4.3 |  | 6.5
CC(=O)O[C@H]1C[C@]2(C)[C@H]3CC=C4[C@@H]5[C@@H](C)[C@H](C)CC[C@]5(C(=O)Nc5cccnc5)CC[C@@]4(C)[C@]3(C)CC[C@H]2C(C)(C)[C@H]1OC(C)=O | 4.2 |  | 3.2 | 3.5 |  |  |  | 2 |  |  | 2 |  | 2.7 |  | 3.5
CC(=O)O[C@H]1C[C@]2(C)[C@H]3CC=C4[C@@H]5[C@@H](C)[C@H](C)CC[C@]5(C(=O)Nc5cnc6ccccc6c5)CC[C@@]4(C)[C@]3(C)CC[C@H]2C(C)(C)[C@H]1OC(C)=O | 2.2 |  | 6.5 | 3.4 |  |  |  | 2.8 |  | Insoluble | 2.5 |  | 3.1 |  | 3.2
CC(=O)O[C@H]1C[C@]2(C)[C@H]3CC=C4[C@@H]5CC(C)(C)CC[C@]5(C(=O)Nc5ccncc5)CC[C@@]4(C)[C@]3(C)CC[C@H]2C(C)(C)[C@H]1OC(C)=O | 1.8 |  | 2.7 | 4 |  |  |  | 1.6 |  |  | 4.2 |  | 4.1 |  | 3.1
CC1(C)CC[C@]2(C(=O)O)CC[C@]3(C)C(=CC[C@@H]4[C@@]5(C)C[C@H](O)[C@H](O)C(C)(C)[C@@H]5CC[C@]43C)[C@@H]2C1 [AUGUSTIC ACID] | > 30 |  | > 30 |  |  |  |  |  |  |  | 25.7 |  |  |  | 25.1
CC(=O)O[C@H]1C[C@]2(C)[C@H]3CC=C4[C@@H]5CC(C)(C)CC[C@]5(C(=O)O)CC[C@@]4(C)[C@]3(C)CC[C@H]2C(C)(C)[C@H]1OC(C)=O | > 30 |  | 23.1 |  |  |  |  |  |  |  | 13.8 |  |  |  | 16.1
CC(=O)O[C@H]1C[C@]2(C)[C@H]3CC=C4[C@@H]5CC(C)(C)CC[C@]5(C(=O)Nc5ccc6ncccc6c5)CC[C@@]4(C)[C@]3(C)CC[C@H]2C(C)(C)[C@H]1OC(C)=O | 0.6 | Active | 4.4 | 4.9 | Active | Active | Active | 2 | Active | Insoluble | 2.9 | Active | 3.8 | Active | 5.8
CC(=O)O[C@H]1C[C@]2(C)[C@H]3CC=C4[C@@H]5[C@@H](C)[C@H](C)CC[C@]5(C(=O)Nc5cccc6ncccc56)CC[C@@]4(C)[C@]3(C)CC[C@H]2C(C)(C)[C@H]1OC(C)=O | > 60 |  | 3.6 | 3.7 |  |  |  | 2.7 |  |  | 2 |  | 3.2 |  | 5.5
CC(=O)O[C@H]1C[C@]2(C)[C@H]3CC=C4[C@@H]5[C@@H](C)[C@H](C)CC[C@]5(C(=O)Nc5cccc6cccnc56)CC[C@@]4(C)[C@]3(C)CC[C@H]2C(C)(C)[C@H]1OC(C)=O | > 30 |  | > 30 | > 30 |  |  |  | 6.7 |  | Insoluble | 13.3 |  | > 30 |  | > 30
CC(=O)O[C@H]1C[C@]2(C)[C@H]3CC=C4[C@@H]5[C@@H](C)[C@H](C)CC[C@]5(C(=O)Nc5ccc6cccnc6c5)CC[C@@]4(C)[C@]3(C)CC[C@H]2C(C)(C)[C@H]1OC(C)=O | 1.8 |  | 2 | 3.1 |  |  |  | 1.8 |  | Insoluble | 2.4 |  | 2.5 |  | 1.6
CC(=O)O[C@H]1C[C@]2(C)[C@H]3CC=C4[C@@H]5CC(C)(C)CC[C@]5(C(=O)Nc5ccc6cccnc6c5)CC[C@@]4(C)[C@]3(C)CC[C@H]2C(C)(C)[C@H]1OC(C)=O | 0.7 |  | 1.3 | 2.6 |  |  |  | 1 |  | Insoluble | 1.6 |  | 1.6 |  | 1.4
CC(=O)O[C@H]1C[C@]2(C)[C@H]3CC=C4[C@@H]5[C@@H](C)[C@H](C)CC[C@]5(C(=O)Nc5ccnc6ccccc56)CC[C@@]4(C)[C@]3(C)CC[C@H]2C(C)(C)[C@H]1OC(C)=O | 5.2 |  | 5.5 | 8.2 |  |  |  | 3.5 |  | Insoluble | 6.4 |  | 6.6 |  | 4
CC(=O)O[C@H]1C[C@]2(C)[C@H]3CC=C4[C@@H]5CC(C)(C)CC[C@]5(C(=O)Nc5cccnc5)CC[C@@]4(C)[C@]3(C)CC[C@H]2C(C)(C)[C@H]1OC(C)=O | 2.4 |  | 2.2 | 2.8 |  |  |  | 0.9 |  |  | 1.7 |  | 2.3 |  | 2
CC(=O)O[C@H]1CC[C@]2(C)[C@H]3CC=C4[C@@H]5[C@@H](C)[C@H](C)CC[C@]5(C(=O)Nc5cccc6ncccc56)CC[C@@]4(C)[C@]3(C)CC[C@H]2C1(C)C | 3.5 |  | 5.1 | 5.1 |  |  |  | 4.4 |  |  | 3.5 |  | 3.5 |  | 3.9
C[C@H]1[C@H](C)CC[C@]2(C(=O)O)CC[C@]3(C)C(=CC[C@@H]4[C@@]5(C)C[C@H](O)[C@H](O)C(C)(C)[C@@H]5CC[C@]43C)[C@H]12 | > 30 |  | > 30 | > 30 |  |  |  | 24.9 |  |  | > 30 |  | > 30 |  | 29.1
CC(=O)O[C@H]1C[C@]2(C)[C@H]3CC=C4[C@@H]5CC(C)(C)CC[C@]5(C(=O)Nc5cccc6ncccc56)CC[C@@]4(C)[C@]3(C)CC[C@H]2C(C)(C)[C@H]1OC(C)=O | 8.6 | Active | 2.4 | 3 | Active | Active | Active | 0.7 | Active |  | 1.2 | Active | 2.3 | Active | 2.5
